The results in this text go back to patent publication US20110294734A1, “PHARMACEUTICAL COMPOSITIONS COMPRISING TGF-BETA 1 INHIBITOR PEPTIDES” (DIGNA BIOTECH, S.L., priority 2009, published 2011).

The nature of this data set: Solubility study of P144. The class given is physicochemical.

Like-named read-outs stand apart in the source and are kept apart here. No end group written: not given here.

With “TSLDASIIWAMMQN [Formula P144, TSLDASIIWAMMQN]”, the Solubility entry (Dicloromethane (DCM)) is listed as “insoluble”; the Solubility entry (Dimethyl sulfoxide (DMSO)) is on record as “very soluble”; the Solubility result (Dimethylformamide (DMF)) was “insoluble”; the Solubility entry (Ethanol) is “insoluble”; the Solubility result (Gantrez ® S97 2-5%) is recorded as “insoluble”; the Solubility entry (Glycerol) is listed as “insoluble”. Further, the Solubility result reads like this: (Hexane) “insoluble”; (Human albumin 20%, read-out: Solubility) 250 µg/mL; (Hydroxy-propyl-β-cyclodextrin 5%, read-out: Solubility) 250 µg/mL; (PEG 400) “insoluble”; (PLASDONE 5%) “insoluble”; (Pluronic F68 (1-10%)) “insoluble”. Further, the Solubility result reads like this: (Proplylene glycol) “insoluble”; (Sodium deoxycholate 5%) “insoluble”; (Tetrahydrofurane (THF)) “insoluble”; (Urea 10%, read-out: Solubility) 250 µg/mL; (distilled water) “insoluble”.

The Solubility is how much of the substance goes into solution per volume.
